Consider five compounds from patent publication US20120128630A1, “1-(6 MEMBERS AZO-HETEROCYCLIC)-PYRROLIN-2-ONE COMPOUNDS AS INHIBITORS OF HEPATITIS C NS5B POLYMERASE, THE PHARAMACEUTICAL COMPOSITION THEREOF AND THEIR THERAPEUTIC USE” (priority 2009, published 2012).

One series has as its target T1, HCV NS5B genotype 1b (Hepatitis C virus genotype 1b, UniProt Q9WMX2).
T1 construct: The protein was expressed with a 21 amino acid C-terminal deletion to remove transmembrane domain; expressed in transfected cells; host or cells: Huh-7
The experiment in a line: 3D-SCREEN assay (NS5B 3D-Screen platform, luciferase reporter gene). The class given is cell-based. The note with it: EC50_3DS_NS5B. A digest of the protocol: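 Huh-7 cells transiently co-transfected with NS5BΔ21/Gal4-DBD, 3D-Sensor peptide I4/VP16 and firefly luciferase reporter. Compounds added 2 h after seeding, 1% DMSO final, 24 h incubation. Luciferase luminescence read; % inhibition relative to no-compound signal.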

Another series deals with HCV replicon Luc Neo ET. The experiment in a line: Luc Neo ET Replicon assay. The class given is cell-based, Hepatitis C virus. The note with it: Hepatitis C virus, 72 h, Table 3, titled RdRp enzyme assay results, EC50_Replicon LucneoET; 72 hours with compound, luciferase. An outline of the steps: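 Huh-7-derived Luc Neo ET bicistronic HCV replicon cells (adaptive mutations E1202G, T1280I, K1846T) treated 24 h after seeding with compounds for 72 h, 1% DMSO final, 37 °C. Firefly luciferase luminescence read after lysis; % inhibition from background-corrected RLU relative to untreated signal.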
(Replicon systems follow genome replication, usually without infectious particles.)

In series [1] the target is T2, HCV NS5B with a deletion of the 21 C-terminal amino acids (Hepatitis C virus genotype 1b, UniProt Q9WMX2).
T2 construct: purified HCV NS5B with a deletion of the 21 C-terminal amino acids
The experiment in a line: HCV NS5B RdRp enzyme assay. The class given is biochemical. As to the method:
The assay was performed in a total volume of 20 μl containing 20 mM Tris pH 7.5, 1 mM DTT, 17 U RNasin, 50 mM NaCl, 10% DMSO, 5 mM MgCl2, 0.5 mM each of the 3 NTPs (ATP, CTP, GTP), 86 nM RNA template (341 nt from the 3′ end of HCV minus strand RNA), 50 nM of purified HCV NS5B with a deletion of the 21 C-terminal amino acids and 2 μCi [^3H]UTP (46 Ci.mmol^−1). The reaction mixture was incubated for 2 h at 25-30° C. and the radiolabeled products were precipitated by the addition of 10% TCA. The radioactivity incorporated was quantified by counting in a Wallac scintillation counter. Increasing concentrations of tested compounds were added to the complete RdRp reaction mixture. After a two hour incubation period at 25-30° C., the amount of labeled product was determined as above. Two types of control reactions were done: a negative control corresponding to the complete mixture without enzyme and a positive control with enzyme but without compounds. In each experiment, test and control samples are in duplicate.
The level of activity with each compound concentration was expressed with the formulae: […]
The IC50 value was calculated as the compound concentration reducing polymerase activity by 50%.

The mark [2] stands for this setting: Table 2, titled Replicon assay results.

For the compound `Cc1ccc(N2C(=O)C(O)=C(C(=O)c3ccc(C(C)C)cc3)C2c2ccc(C(F)(F)F)cc2)nn1` (stereo not shown) [Example 63, 3-hydroxy-4-(4-isopropyl-benzoyl)-1-(6-methyl-pyridazin-3-yl)-5-(4-trifluoromethyl-phenyl)-1,5-dihydro-pyrrol-2-one], the melting point (commonly the temperature, or range, at which the solid turns liquid) fell in the range of 268 to 270 °C. In addition, the EC50 (in general, the midpoint of the concentration-response curve) at HCV NS5B genotype 1b (Table 1, 3D-SCREEN assay results, Huh-7 cells, 24 hours with compound, firefly luciferase reporter) was 60 nM. Also, the EC50 with HCV replicon Luc Neo ET worked out at 100 nM. Moreover, the inhibition (in general, the change of the read-out against control, counted positive when it falls) at 10 µM in series [1] was determined as 50%.

On to `Cc1ccc(N2C(=O)C(O)=C(C(=O)c3ccc(C(C)C)cc3)[C@H]2c2ccc(OC(F)(F)F)cc2)nn1` [Example 188, 3-hydroxy-4-(4-isopropyl-benzoyl)-1-(6-methyl-pyridazin-3-yl)-5(R)-(4-trifluoromethoxy-phenyl)-1,5-dihydro-pyrrol-2-one], for which the melting point stood at 217 °C. The same compound registered an EC50 on HCV NS5B genotype 1b (setting [2]) of under 100 nM. In addition, the EC50 in the series on HCV replicon Luc Neo ET is under 100 nM.

The compound `Cc1ccc(N2C(=O)C(O)=C(C(=O)c3ccc(C(C)C)cc3)[C@@H]2c2ccc(OC(F)(F)F)cc2)nn1` [Example 189, 3-hydroxy-4-(4-isopropyl-benzoyl)-1-(6-methyl-pyridazin-3-yl)-5(S)-(4-trifluoromethoxy-phenyl)-1,5-dihydro-pyrrol-2-one] displayed a melting point of 221 °C. For the same compound, at HCV NS5B genotype 1b (setting [2]), the EC50 was under 10000 nM. The EC50 with HCV replicon Luc Neo ET is under 10000 nM.

In turn, `Cc1ccc(N2C(=O)C(O)=C(C(=O)c3ccc(C(C)C)cc3)[C@H]2c2ccc(C(F)(F)F)cc2)nn1` [Example 191, 3-hydroxy-4-(4-isopropyl-benzoyl)-1-(6-methyl-pyridazin-3-yl)-5(R)-(4-trifluoromethyl-phenyl)-1,5-dihydro-pyrrol-2-one] showed a melting point of 251 °C. The compound further displayed an EC50 at HCV NS5B genotype 1b (setting [2]) of under 100 nM. Besides, the EC50 with HCV replicon Luc Neo ET is under 100 nM.

With `Cc1ccc(C(=O)C2=C(O)C(=O)N(c3ccc(C)nn3)[C@@H]2c2ccc(OC(F)(F)F)cc2)cc1` [Example 199, 3-hydroxy-4-(4-methyl-benzoyl)-1-(6-methyl-pyridazin-3-yl)-5(R)-(4-trifluoromethoxy-phenyl)-1,5-dihydro-pyrrol-2-one], the melting point stood at 215 °C. The compound also gave an EC50 at HCV NS5B genotype 1b (setting [2]) of under 1000 nM. Besides, the EC50 in the series with HCV replicon Luc Neo ET is under 1000 nM.
